According to paper PMC10442743 (Dalton Transactions (Cambridge, England : 2003), 2023):
Read-outs that look alike come from different tables or passages of the source.

Legend:
[1] = test system: 14-mer ssDNA 5′–3′ (ATACATGGTACATA); conditions: 3 : 1 ratio, 37 °C, 24 h
Procedure: (§1) Tandem mass spectrometry was used to investigate the binding mode interaction of 11Cl with single- (ss) and double-strand (ds) DNA oligomers.[77,78]
(§2) 11Cl was incubated with 14-mer ssDNA 5′–3′ ([…]) and 6-mer dsDNA 5′–3′ (AGGCAG) in a 3 : 1 ratio at 37 °C in MilliQ water. After 24 h the solution was centrifuged with an Amicon® Ultra 0.5 mL centrifugal filter 3 kDa MWCO to remove the unreacted metal complex and excess salts.

[2] = test system: 6-mer dsDNA 5′–3′ (AGGCAG); conditions: 3 : 1 ratio, 37 °C, 24 h
Procedure: as §1, §2

[3] = target: bovine serum albumin (BSA) (Bos taurus, UniProt P02769); experiment: BSA binding assay (tryptophan fluorescence quenching)
Sequence of bovine serum albumin (BSA) (P02769 25-607): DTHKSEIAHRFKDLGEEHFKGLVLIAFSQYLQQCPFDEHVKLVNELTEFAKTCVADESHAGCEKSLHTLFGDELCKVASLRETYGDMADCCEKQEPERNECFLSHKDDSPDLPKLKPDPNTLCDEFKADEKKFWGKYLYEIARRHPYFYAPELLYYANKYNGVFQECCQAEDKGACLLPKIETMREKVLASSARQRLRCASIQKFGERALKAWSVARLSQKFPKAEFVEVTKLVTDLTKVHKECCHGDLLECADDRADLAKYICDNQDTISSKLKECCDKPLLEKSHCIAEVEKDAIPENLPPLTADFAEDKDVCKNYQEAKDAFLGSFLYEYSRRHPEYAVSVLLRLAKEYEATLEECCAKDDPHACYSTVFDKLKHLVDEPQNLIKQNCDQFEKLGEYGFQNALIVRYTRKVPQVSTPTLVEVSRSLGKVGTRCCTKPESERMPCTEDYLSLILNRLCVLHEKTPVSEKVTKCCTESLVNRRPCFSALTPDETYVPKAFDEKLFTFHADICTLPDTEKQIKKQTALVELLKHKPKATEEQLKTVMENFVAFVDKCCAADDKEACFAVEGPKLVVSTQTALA
Procedure: BSA (16 μM) in 10 mM Tris-HCl pH 7.6 + 1 mM EDTA solution and varying concentrations of 11Cl (0–32 μM) were incubated at 37 °C for 24 h. Afterward, the fluorescence spectra were measured for each solution between 300 and 500 nm (λex = 280 nm). The intensity at λmax (340 nm) was recorded.

ct-DNA = experiment: Competitive DNA binding assay with fluorescent probes (DAPI, MG, PI)
Procedure: From the obtained fluorescence data, apparent DNA binding constants, Kapp, were calculated according to the competitive binding model described by Tse and Boger.[66]
Emission intensity measurements were performed using a SpectraMax M5e reader at room temperature. A 50 μM (bp) of ct-DNA was pre-incubated with the groove binding agents (MG and DAPI) (2 μM) and the intercalating agent propidium iodide (2 μM) for 30 min at 37 °C, to allow full interaction of the dyes into the ctDNA. Increasing amounts of 11Cl (0–100 μM) were added to this mixture and the final samples were incubated for 24 h at 37 °C. After incubation, the emission spectra were recorded at excitations of 633, 358, and 535 nm for the measurements of MG, DAPI, and PI, respectively. Quenching parameters were obtained by applying the Stern–Volmer equation (eqn (2)). The apparent binding constants, Kapp, were calculated according to the competitive binding model described by Tse and Boger[66] using eqn (4):[90]4 Kprobe[probe] = Kappc50where Kprobe is the binding constant of the probe, 9 × 10^5 and 5 × 10^6 M^−1 for MG[91] and DAPI,[92] respectively; [probe] is the concentration of probe used, 10 μM for both MG and DAPI; and c50 is the complex concentration when the fluorescence intensity of the probe is 50%. This value is obtained from the plot F0/F vs. [Q] when F0/F = 2.

[4] = n-octanol/water partition coefficient (shake-flask, ICP-MS)
Procedure: The saturated solutions were filtered
(DigiPREP Jr. 15ml, 40 Pos, SCP Science). The digestion program was the following: 15
After the digestion, the sample
Samples were further diluted
range. All measurements were performed in triplicates.
lipophilicity of a compound. This assay was performed following the Shake-flask method
organic and aqueous phase. Aliquots of each phase were taken and analyzed separately
range. The partition coefficient was calculated as P!"=
respectively. All measurements were performed in triplicates.

[5] = Molar conductivity in acetonitrile; format: physicochemical; conditions: 1 mM in acetonitrile, 25 °C
Procedure: The molar conductivity (ΛM, reported as S·cm2·mol–1) of solutions of 11CA in acetonitrile (1 mM) were measured in a Radiometer Copenhagen CDM92 equipped with a conductivity cell CDC641T glass platinum electrode at room temperature (25 °C). The conductivity of the pure solvent was used as standard controls.
Table S3. Solubility in water at 25 °C, n-octanol/water partition coefficient and molar conductivity of the 11CA. * below limit of detection = 5 ppt.

MCF-7 = experiment: MTT cytotoxicity assay, MCF-7 cells; format: cell-based, human; conditions: MTT
Procedure: (§3) The cytotoxicity of 1–11CA was assessed against human breast cancer MCF-7 and MDA-MB-231 cells, and non-tumorigenic adherent mouse fibroblast connective tissue L929 cells using the MTT assay after 24 and 72 h (Tables S5 ^† and Table 1, respectively).
(§4) Then, necessary dilutions were made using the supplement DMEM, to prepare the range of tested concentrations. Since DMSO was used to solubilize the compounds, a supplemented DMEM + DMSO (at the same percentage as in the sequential dilutions) was considered as a control in the 3-[4,5-dimetylthiazole-2-yl]-2,5-diphenyltetrazolium bromide (MTT) assay.
(§5) L929, MCF-7, and MDA-MB-231 cell lines were cultured in DMEM supplemented with 10% (v/v) FBS and 1% (v/v) of penicillin–streptomycin. The cells were incubated in a humidified chamber at 37 °C under saturated air with a 5% CO2 atmosphere. Cells were passed at 80%–90% of confluency with 0.25% (w/v) trypsin and the cell culture media was changed every 2–3 days.
(§6) The compounds were tested on two breast cancer cell lines (MCF-7 and MDA-MB-231) and L929 fibroblasts, used as a reference for the safety evaluation according to ISO 10993-1:2009 “Biological evaluation of medical devices”. Cells were seeded on sterile 96-well plates at 50 000 cells per well (L929) and 20 000 cells per well (MCF-7 and MDA-MB-231) in supplemented DMEM medium (100 μL) for 24 h. The culture medium was removed and new media containing different concentrations of the compounds (0–1000 μM) was added to the wells (100 μL). Control cells were incubated under the same conditions in the absence of a compound. Cells were incubated for 24 and 72 h under the same conditions described above. Then, the medium was removed, and the cells were incubated with 3-(4,5-dimethylthiazol-2-yl)-2,5-diphenyltetrazolium bromide (MTT; 0.5 mg mL^−1) for 3 h. After this time, the medium was removed, and formazan crystals were solubilized with DMSO (100 μL per well). The absorbance in each well was read on a SynergyTM HT Multimode microplate reader (BioTek Instruments; Winooski, VT, USA) at 570 and 630 nm (for background correction), and the cell viability was calculated according to the following equation (eqn (1)):1 [drawing 3] where OD570(sample) and OD630(sample) are the optical densities of the solutions containing the compounds and OD570(control) and OD630(control) are controls without compound.
(§7) Each apoptosis value determination represents the mean ± standard deviation of 2 independent assays. The IC50 values were obtained using GraphPad Prism software and ANOVA (analysis of variance) was performed to determine the statistical difference between the IC50 values of different cell lines.

[6] = Stability in solution (ESI-MS, NMR); conditions: 1 mM
Procedure: The stability of 11CA under pseudo-physiological conditions was assessed using ESI-MS and ^1H and ^31P NMR spectroscopy.
Stability studies were performed on 11CA over 72 h at 37 °C.
The stability of 11Cl was also monitored over
72 h via 1H and 31P NMR spectroscopy. The complex was fully dissolved in d6-DMSO,
diluted with D2O to reach 10% d6-DMSO in D2O (1 mM final concentration) and, finally,
the pD was adjusted to 7.2 ± 0.1 (neutral conditions). Furthermore, the stability of 11Cl
and 11BPh4 was also assessed in 100% d6-DMSO (1 mM final concentration) as a highly

ctDNA = experiment: Circular dichroism / induced circular dichroism with calf thymus DNA
Procedure: Calf thymus (ct) DNA (Merck®) was used to perform the circular dichroism assay to detect conformational changes in the ctDNA induced by the compounds. CD spectral data was collected on a Chirascan™ V100 (Applied Photophysics) spectropolarimeter equipped with a large area Avalanche photodiodes detector and computer-controlled thermoelectrical cell holder using a 1 cm path length quartz cuvette. CD spectra of ctDNA in the absence and presence of different concentrations of 11Cl were recorded at wavelengths ranging from 320 to 190 nm under constant nitrogen flush at 25 °C. For each CD spectrum, the number of scans was set to 5, and spectral data were collected at 0.1 ms intervals. Additionally, methyl green (MG) and 4′,6-diamidino-2-phenylindole (DAPI), and propidium iodide (PI) were analyzed as minor and major groove binders and as an intercalator, respectively, to help identify the binding mode of 11Cl to DNA. Samples were prepared in 10 mM Tris-HCl buffer (pH 7.6) with 1 mM EDTA. The concentration of ctDNA was fixed at 100 μM (concerning base pairs) and the ctDNA to 11Cl ratio was varied between 0 and 1. The samples were incubated for 24 h at 37 °C and then analyzed in the CD spectropolarimeter.

L929 = experiment: MTT cytotoxicity assay, L929 fibroblasts (and selectivity index); format: cell-based, mouse; conditions: for SI (selectivity index): IC50 L929 divided by average IC50 of the breast cancer cell lines; for IC50: MTT
Procedure: as §3, §4, §5, §6, §7

[7] = complex concentration at 50% probe fluorescence, Table S9
[8] = ctDNA, DAPI competitive binding, Table S9
[9] = ctDNA, MG competitive binding, Table S9

## Cc1ccccc1.[Cl-].[Cl][Ru+]([PH](c1ccccc1)(c1ccccc1)c1ccccc1)[PH](c1ccccc1)(c1ccccc1)c1ccccc1 [Compound 11Cl, [Ru(η^6-toluene)(PPh3)2Cl]Cl]
[1]
  identified ssDNA ions containing ruthenium: 43%
[2]
  identified dsDNA ions containing ruthenium: 23%
[3]; BSA 16 μM, 37 °C, 24 h
  bimolecular quenching rate kq (BSA): 1.9e+12 M⁻¹ s⁻¹
  binding constant to BSA: 560000 M⁻¹
[3]; Table S8
  KSV (BSA): 1.13 ± 0.08 104 M−1
  kq (BSA): 1.88 ± 0.14 1012 M−1
  n (number of binding sites, BSA): 1.4
[3]; estimated value
  n (number of binding sites in BSA): ~1
ct-DNA; [7]
  C50, DAPI probe: 1.1 10−4 M
  C50, MG probe: 2.1 10−4 M
ct-DNA; [8]
  KSV, DAPI probe: 8.8 ± 0.6 103 M−1
  Kapp, DAPI probe: 4.4 ± 0.3 105 M−1
  kq, DAPI probe: 3.3 ± 0.3 1012 M−1
ct-DNA; [9]
  KSV, MG probe: 4.8 ± 0.7 103 M−1
  Kapp, MG probe: 0.43 ± 0.04 105 M−1
  kq, MG probe: 0.48 ± 0.07 1012 M−1
ct-DNA; ctDNA, probe PI
  quenching of PI (intercalator probe) fluorescence: no linear quenching was observed
ct-DNA; from difference of Kapp values
  preference towards the minor groove: 10 fold
[4]
  LogPow: 1.48 ± 0.29
[5]
  Conductivity (molar conductivity): 128 S·cm2/mol
MCF-7; 24 h exposure, read-out: IC50 (µM) (average ± standard deviation) 24 h MCF-7
  IC50: 4 ± 0.3 µM
MCF-7; 72 h exposure, read-out: IC50 (μM) (average ± standard deviation) 72 h MCF-7
  IC50: 0.061 ± 0.003 µM
[6]; 10% d6-DMSO in D2O, pD 7.2, 72 h
  stability by NMR spectroscopy in neutral conditions: No signs of hydrolysis or decomposition were observed
[6]; 100% d6-DMSO, 72 h
  stability in DMSO (NMR): No changes were observed
ctDNA; DNA, 24 h, 37 °C
  CD band 210 nm, intensity change: decrease in the ellipticity
  CD band 210 nm, wavelength shift: remained unchanged
  CD band 220 nm (hydrogen bonding), intensity change: increase in the circularity
  CD band 220 nm (hydrogen bonding), wavelength shift: small bathochromic (red) shift
  CD band 246 nm (helicity), intensity change: decrease in the ellipticity
  CD band 246 nm (helicity), wavelength shift: remained unchanged
  CD band 268−280 nm (base-pair stacking interactions), intensity change: decrease in the ellipticity
  CD band 268−280 nm (base-pair stacking interactions), wavelength shift: remained unchanged
ctDNA; DNA–DAPI after treatment with 11Cl
  decrease of the intensity of the ICD bands of DAPI: 35%
ctDNA; DNA–MG after treatment with 11Cl
  decrease of the intensity of the ICD bands of MG: 20%
L929
  selectivity for the breast cancer cell lines compared to the healthy ones: ~10 fold
L929; 24 h
  SI (selectivity index): 1.1
L929; 24 h exposure, read-out: IC50 (µM) (average ± standard deviation) 24 h L929
  IC50: 5.3 ± 0.7 µM
L929; 72 h
  SI (selectivity index): 11.8
L929; 72 h exposure, read-out: IC50 (μM) (average ± standard deviation) 72 h L929
  IC50: 0.87 ± 0.05 µM
